Laboratory results from US9156845B2, “4-(substituted amino)-7H-pyrrolo[2,3-d] pyrimidines as LRRK2 inhibitors” (Pfizer Inc., priority 2012, dated 2015).

Columns and labels:
[1] = test system: RSK1, RSK2, RSK3 domain1; test: ActivX kinase probe assay (human PBMC); type: binding
[2] = target: CaMK2g (Homo sapiens (Human), UniProt Q13555); test: ActivX kinase probe assay (human PBMC); type: binding; settings: read-out: percent inhibition
[3] = target: FRAP (Homo sapiens (Human), UniProt P42345); test: ActivX kinase probe assay (human PBMC); type: binding; settings: read-out: percent inhibition
[4] = target: IRAK1 (Homo sapiens (Human), UniProt P51617); test: ActivX kinase probe assay (human PBMC); type: binding; settings: read-out: percent inhibition
[5] = target: JAK1 domain2 (Homo sapiens (Human), UniProt P23458); test: ActivX kinase probe assay (human PBMC); type: binding; settings: read-out: percent inhibition
[6] = target: ZC2/TNIK (Homo sapiens (Human), UniProt Q9UKE5); test: ActivX kinase probe assay (human PBMC); type: binding; settings: read-out: percent inhibition
[7] = test system: PITSLRE; test: ActivX kinase probe assay (human PBMC); type: binding
[8] = target: PIK3CB (Homo sapiens (Human), UniProt P42338); test: ActivX kinase probe assay (human PBMC); type: binding; settings: read-out: percent inhibition
[9] = target: MARK2 (Homo sapiens (Human), UniProt Q7KZI7); test: ActivX kinase probe assay (human PBMC); type: binding; settings: read-out: percent inhibition
[10] = target: NEK7 (Homo sapiens (Human), UniProt Q8TDX7); test: ActivX kinase probe assay (human PBMC); type: binding; settings: read-out: percent inhibition
[11] = target: MAP3K3 (Homo sapiens (Human), UniProt Q99759); test: ActivX kinase probe assay (human PBMC); type: binding; settings: read-out: percent inhibition
[12] = target: JAK1 (Homo sapiens (Human), UniProt P23458); test: ActivX kinase probe assay (human PBMC); type: binding; settings: read-out: percent inhibition
[13] = target: CDK5 (Homo sapiens (Human), UniProt Q00535); test: ActivX kinase probe assay (human PBMC); type: binding; settings: read-out: percent inhibition
[14] = target: JAK3 domain2 (Homo sapiens (Human), UniProt P52333); test: ActivX kinase probe assay (human PBMC); type: binding; settings: read-out: percent inhibition
[15] = test system: AMPKa1, AMPKa2; test: ActivX kinase probe assay (human PBMC); type: binding
[16] = target: BTK (Homo sapiens (Human), UniProt Q06187); test: ActivX kinase probe assay (human PBMC); type: binding; settings: read-out: percent inhibition
[17] = target: ULK3 (Homo sapiens (Human), UniProt Q6PHR2); test: ActivX kinase probe assay (human PBMC); type: binding; settings: read-out: percent inhibition
[18] = target: NuaK2 (Homo sapiens (Human), UniProt Q9H093); test: ActivX kinase probe assay (human PBMC); type: binding; settings: read-out: percent inhibition
[19] = target: FES (Homo sapiens (Human), UniProt P07332); test: ActivX kinase probe assay (human PBMC); type: binding; settings: read-out: percent inhibition
[20] = target: mutant G2019S LRRK2 (Homo sapiens (Human), UniProt Q5S007, G2019S); test: LRRK2 Lantha Screen kinase assay, mutant enzyme; type: biochemical; settings: geometric mean of 2-5 determinations unless otherwise indicated (a: >=6 determinations; b: single determination)
[21] = target: PIK3CD (Homo sapiens (Human), UniProt O00329); test: ActivX kinase probe assay (human PBMC); type: binding; settings: read-out: percent inhibition
[22] = target: TAO2 (Homo sapiens (Human), UniProt Q9UL54); test: ActivX kinase probe assay (human PBMC); type: binding; settings: read-out: percent inhibition
[23] = target: MLKL (Homo sapiens (Human), UniProt Q8NB16); test: ActivX kinase probe assay (human PBMC); type: binding; settings: read-out: percent inhibition
[24] = target: FGR (Homo sapiens (Human), UniProt P09769); test: ActivX kinase probe assay (human PBMC); type: binding; settings: read-out: percent inhibition
[25] = target: MAP2K1 (Homo sapiens (Human), UniProt Q02750); test: ActivX kinase probe assay (human PBMC); type: binding; settings: read-out: percent inhibition
[26] = target: NDR1 (Homo sapiens (Human), UniProt Q15208); test: ActivX kinase probe assay (human PBMC); type: binding; settings: read-out: percent inhibition
[27] = target: CDK2 (Homo sapiens (Human), UniProt P24941); test: ActivX kinase probe assay (human PBMC); type: binding; settings: read-out: percent inhibition
[28] = target: PKR (Homo sapiens (Human), UniProt P19525); test: ActivX kinase probe assay (human PBMC); type: binding; settings: read-out: percent inhibition
[29] = target: PRPK (Homo sapiens (Human), UniProt Q96S44); test: ActivX kinase probe assay (human PBMC); type: binding; settings: read-out: percent inhibition
Procedure: Certain of the compounds of the present invention were assessed for kinase selectivity using a commercially available ActiveX targeted kinase probe in which the tissue employed was human peripheral blood mononuclear cells (PBMC). The test compounds were provided to ActivX Biosciences, Inc., 11025 North Torrey Pines Road, Suite 120; LaJolla, Calif., USA 92037. The compounds were run in the ActivX proprietary kinase assay and results were obtained at compound test concentrations of 1 μM (columns 2, 4 and 6) and 0.1 μM (columns 3, 5 and 7). The results as percent inhibition obtained for the compounds of Examples 1, 4 and 217 are provided below in Table 3.

[30] = test system: PCTAIRE2, PCTAIRE3; test: ActivX kinase probe assay (human PBMC); type: binding
[31] = test system: MST4, YSK1; test: ActivX kinase probe assay (human PBMC); type: binding
[32] = target: PKD2 (Homo sapiens (Human), UniProt Q9BZL6); test: ActivX kinase probe assay (human PBMC); type: binding; settings: read-out: percent inhibition
PKD2, sequence (Q9BZL6 whole entry): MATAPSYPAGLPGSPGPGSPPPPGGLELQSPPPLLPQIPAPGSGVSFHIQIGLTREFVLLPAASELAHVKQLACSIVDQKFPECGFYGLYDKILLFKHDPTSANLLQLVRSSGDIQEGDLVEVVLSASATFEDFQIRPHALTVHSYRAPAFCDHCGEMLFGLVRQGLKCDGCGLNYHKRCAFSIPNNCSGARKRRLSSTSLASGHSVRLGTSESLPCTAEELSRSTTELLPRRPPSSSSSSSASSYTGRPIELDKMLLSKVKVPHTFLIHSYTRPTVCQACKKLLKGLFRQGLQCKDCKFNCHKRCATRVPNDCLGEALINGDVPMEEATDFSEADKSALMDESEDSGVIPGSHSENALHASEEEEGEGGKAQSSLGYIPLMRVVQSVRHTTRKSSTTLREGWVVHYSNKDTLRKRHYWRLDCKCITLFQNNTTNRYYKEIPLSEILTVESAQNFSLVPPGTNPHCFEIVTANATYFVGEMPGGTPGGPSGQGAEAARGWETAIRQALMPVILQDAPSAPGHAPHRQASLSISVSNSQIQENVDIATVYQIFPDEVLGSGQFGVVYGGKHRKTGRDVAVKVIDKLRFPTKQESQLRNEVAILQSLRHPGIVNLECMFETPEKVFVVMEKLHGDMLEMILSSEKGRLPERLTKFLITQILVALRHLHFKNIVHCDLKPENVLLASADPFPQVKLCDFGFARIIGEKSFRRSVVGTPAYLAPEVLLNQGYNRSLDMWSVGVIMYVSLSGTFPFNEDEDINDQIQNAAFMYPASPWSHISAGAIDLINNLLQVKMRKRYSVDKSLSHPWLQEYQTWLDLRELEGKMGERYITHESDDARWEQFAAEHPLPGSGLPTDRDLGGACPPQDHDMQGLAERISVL

NuaK2, sequence (Q9H093 whole entry): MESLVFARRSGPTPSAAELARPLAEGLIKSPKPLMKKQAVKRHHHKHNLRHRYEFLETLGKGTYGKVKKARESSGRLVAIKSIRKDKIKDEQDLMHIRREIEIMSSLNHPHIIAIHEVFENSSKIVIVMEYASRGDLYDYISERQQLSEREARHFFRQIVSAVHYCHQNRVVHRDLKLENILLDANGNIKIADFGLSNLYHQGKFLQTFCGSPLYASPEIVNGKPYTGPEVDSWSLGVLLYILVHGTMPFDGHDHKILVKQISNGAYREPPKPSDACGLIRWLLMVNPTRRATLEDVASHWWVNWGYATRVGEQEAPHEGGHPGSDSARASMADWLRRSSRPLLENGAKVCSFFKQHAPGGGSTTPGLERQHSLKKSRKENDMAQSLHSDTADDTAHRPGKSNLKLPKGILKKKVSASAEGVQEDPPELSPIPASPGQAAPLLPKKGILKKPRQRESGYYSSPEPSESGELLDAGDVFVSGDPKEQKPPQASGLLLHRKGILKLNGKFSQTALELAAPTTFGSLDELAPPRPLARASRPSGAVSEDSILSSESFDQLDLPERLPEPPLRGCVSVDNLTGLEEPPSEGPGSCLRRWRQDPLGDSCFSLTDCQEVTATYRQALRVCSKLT
MAP2K1, sequence (Q02750 whole entry): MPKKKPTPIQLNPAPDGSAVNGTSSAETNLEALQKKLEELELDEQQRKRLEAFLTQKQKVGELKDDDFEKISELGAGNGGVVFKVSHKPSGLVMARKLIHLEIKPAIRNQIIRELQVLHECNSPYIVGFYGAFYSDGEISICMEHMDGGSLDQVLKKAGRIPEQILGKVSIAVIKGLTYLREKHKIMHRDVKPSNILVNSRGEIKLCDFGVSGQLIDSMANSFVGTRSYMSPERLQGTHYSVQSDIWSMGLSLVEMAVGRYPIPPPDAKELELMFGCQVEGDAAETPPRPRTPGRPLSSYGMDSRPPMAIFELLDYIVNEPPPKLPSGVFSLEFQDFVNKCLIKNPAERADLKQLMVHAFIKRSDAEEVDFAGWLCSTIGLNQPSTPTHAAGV
JAK3 domain2, sequence (P52333 whole entry, the tested form may be a part): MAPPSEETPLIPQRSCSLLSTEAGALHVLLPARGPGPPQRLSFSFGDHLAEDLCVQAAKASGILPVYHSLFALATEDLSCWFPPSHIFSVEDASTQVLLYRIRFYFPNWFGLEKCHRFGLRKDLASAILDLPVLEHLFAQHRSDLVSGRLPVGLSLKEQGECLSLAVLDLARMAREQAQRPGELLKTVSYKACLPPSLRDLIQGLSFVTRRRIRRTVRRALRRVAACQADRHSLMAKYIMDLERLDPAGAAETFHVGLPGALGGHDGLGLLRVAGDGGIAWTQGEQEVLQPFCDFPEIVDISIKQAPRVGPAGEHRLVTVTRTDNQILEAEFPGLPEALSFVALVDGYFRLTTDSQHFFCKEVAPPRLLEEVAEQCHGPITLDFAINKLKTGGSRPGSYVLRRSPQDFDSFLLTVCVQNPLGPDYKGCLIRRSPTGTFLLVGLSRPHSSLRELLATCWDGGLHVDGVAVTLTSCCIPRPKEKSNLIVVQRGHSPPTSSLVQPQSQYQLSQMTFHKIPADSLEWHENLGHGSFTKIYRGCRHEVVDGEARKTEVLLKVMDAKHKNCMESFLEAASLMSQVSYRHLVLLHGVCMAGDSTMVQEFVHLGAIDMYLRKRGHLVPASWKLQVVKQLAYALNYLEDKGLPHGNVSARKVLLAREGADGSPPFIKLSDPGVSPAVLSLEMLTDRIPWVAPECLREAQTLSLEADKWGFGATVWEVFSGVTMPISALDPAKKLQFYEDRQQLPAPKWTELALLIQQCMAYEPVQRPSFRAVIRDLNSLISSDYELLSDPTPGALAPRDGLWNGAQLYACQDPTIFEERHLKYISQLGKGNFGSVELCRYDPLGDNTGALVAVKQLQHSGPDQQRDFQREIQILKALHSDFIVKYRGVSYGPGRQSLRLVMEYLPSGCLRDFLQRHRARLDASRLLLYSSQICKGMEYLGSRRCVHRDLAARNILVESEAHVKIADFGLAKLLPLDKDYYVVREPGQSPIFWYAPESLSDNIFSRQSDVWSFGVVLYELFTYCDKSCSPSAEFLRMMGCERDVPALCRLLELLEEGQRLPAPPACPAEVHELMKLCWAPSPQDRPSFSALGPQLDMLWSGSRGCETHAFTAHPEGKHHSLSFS
NEK7, sequence (Q8TDX7 whole entry): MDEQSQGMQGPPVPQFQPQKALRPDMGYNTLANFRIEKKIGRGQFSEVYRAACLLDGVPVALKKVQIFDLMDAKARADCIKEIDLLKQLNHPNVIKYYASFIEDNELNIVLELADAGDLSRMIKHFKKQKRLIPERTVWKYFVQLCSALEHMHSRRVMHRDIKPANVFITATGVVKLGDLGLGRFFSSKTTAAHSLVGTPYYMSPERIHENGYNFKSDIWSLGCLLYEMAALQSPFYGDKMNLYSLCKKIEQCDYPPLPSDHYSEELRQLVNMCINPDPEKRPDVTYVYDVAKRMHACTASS
TAO2, sequence (Q9UL54 whole entry): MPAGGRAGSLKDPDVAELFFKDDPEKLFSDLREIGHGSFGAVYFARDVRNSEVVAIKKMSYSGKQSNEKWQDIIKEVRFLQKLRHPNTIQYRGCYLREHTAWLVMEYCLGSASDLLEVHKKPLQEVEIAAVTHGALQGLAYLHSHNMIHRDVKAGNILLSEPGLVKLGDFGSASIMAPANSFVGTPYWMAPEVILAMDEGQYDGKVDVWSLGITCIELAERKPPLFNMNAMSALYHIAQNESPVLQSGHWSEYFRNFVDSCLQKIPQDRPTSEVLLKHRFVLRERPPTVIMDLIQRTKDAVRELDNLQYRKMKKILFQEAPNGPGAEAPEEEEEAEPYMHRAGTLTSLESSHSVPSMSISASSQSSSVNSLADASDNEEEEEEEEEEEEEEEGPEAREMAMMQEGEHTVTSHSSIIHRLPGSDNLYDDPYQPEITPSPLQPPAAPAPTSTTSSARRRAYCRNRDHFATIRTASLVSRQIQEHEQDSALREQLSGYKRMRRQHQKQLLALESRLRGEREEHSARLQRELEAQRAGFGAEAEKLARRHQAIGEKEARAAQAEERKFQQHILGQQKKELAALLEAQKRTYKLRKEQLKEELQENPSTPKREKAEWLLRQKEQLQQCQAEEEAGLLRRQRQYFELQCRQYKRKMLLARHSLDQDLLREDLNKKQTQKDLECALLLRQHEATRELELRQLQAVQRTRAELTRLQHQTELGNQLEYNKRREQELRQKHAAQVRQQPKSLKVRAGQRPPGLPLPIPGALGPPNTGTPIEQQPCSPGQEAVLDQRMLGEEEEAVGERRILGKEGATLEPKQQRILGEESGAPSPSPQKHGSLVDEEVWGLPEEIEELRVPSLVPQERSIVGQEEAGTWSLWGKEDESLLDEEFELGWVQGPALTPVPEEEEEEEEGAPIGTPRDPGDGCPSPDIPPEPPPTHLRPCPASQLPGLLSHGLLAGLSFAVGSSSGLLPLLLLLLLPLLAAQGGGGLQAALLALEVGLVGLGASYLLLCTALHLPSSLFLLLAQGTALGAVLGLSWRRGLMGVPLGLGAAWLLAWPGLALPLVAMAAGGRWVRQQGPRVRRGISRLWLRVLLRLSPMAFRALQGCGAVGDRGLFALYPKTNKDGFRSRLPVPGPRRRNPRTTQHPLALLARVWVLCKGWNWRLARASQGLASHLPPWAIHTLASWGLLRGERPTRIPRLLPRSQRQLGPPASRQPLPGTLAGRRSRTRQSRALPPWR
ULK3, sequence (Q6PHR2 whole entry): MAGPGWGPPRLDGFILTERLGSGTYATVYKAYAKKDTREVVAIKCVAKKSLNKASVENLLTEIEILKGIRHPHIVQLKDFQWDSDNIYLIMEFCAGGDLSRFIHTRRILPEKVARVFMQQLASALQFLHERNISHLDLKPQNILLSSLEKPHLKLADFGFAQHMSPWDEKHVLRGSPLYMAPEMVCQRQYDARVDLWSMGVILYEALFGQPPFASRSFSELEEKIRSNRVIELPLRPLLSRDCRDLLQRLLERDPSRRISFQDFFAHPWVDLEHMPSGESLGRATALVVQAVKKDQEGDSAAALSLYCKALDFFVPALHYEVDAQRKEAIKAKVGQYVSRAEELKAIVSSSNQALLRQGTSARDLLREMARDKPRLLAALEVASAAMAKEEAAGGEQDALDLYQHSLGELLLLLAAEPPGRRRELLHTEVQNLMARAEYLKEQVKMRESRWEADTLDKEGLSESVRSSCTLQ

## N#Cc1cccc(-c2c[nH]c3ncnc(N4CCOCC4)c23)c1 [Example 4, 3-[4-(Morpholin-4-yl)-7H-pyrrolo[2,3-d]pyrimidin-5-yl]benzonitrile]
[1]; 0.1 μM
  percent inhibition: −0.4%
[1]; 1 μM
  percent inhibition: 13.4%
[2]
  inhibition at 0.1 µM: -13.6%
  inhibition at 1 µM: 2.9%
[3]
  inhibition at 0.1 µM: -20.7%
  inhibition at 1 µM: 9.8%
[4]
  inhibition at 0.1 µM: -2.9%
  inhibition at 1 µM: 2.1%
[5]
  inhibition at 0.1 µM: -6.2%
  inhibition at 1 µM: 18.9%
[6]
  inhibition at 0.1 µM: -7.9%
  inhibition at 1 µM: 29.2%
[7]; 0.1 μM
  percent inhibition: −12.4%
[7]; 1 μM
  percent inhibition: 10.7%
[8]
  inhibition at 0.1 µM: 0.5%
  inhibition at 1 µM: -2.5%
[9]
  inhibition at 0.1 µM: -4.7%
  inhibition at 1 µM: 27.3%
[10]
  inhibition at 0.1 µM: 2.2%
  inhibition at 1 µM: 7.3%
[11]
  inhibition at 0.1 µM: -0.5%
  inhibition at 1 µM: 7.4%
[12]
  inhibition at 0.1 µM: -9.3%
  inhibition at 1 µM: 5%
[13]
  inhibition at 0.1 µM: -12.2%
  inhibition at 1 µM: 0.1%
[14]
  inhibition at 0.1 µM: 6.9%
  inhibition at 1 µM: 6.8%
[15]; 0.1 μM
  percent inhibition: −4.5%
[15]; 1 μM
  percent inhibition: 32.5%
[16]
  inhibition at 0.1 µM: -2.2%
  inhibition at 1 µM: 9.5%
[17]
  inhibition at 0.1 µM: 3.1%
  inhibition at 1 µM: 5.2%
[18]
  inhibition at 0.1 µM: -11.9%
  inhibition at 1 µM: 18.1%
[19]
  inhibition at 0.1 µM: -9.2%
  inhibition at 1 µM: 6.9%
[20]
  IC50: 11 nM
[21]
  inhibition at 0.1 µM: -14%
  inhibition at 1 µM: -12.4%
[22]
  inhibition at 0.1 µM: -12.7%
  inhibition at 1 µM: -2.5%
[23]
  inhibition at 0.1 µM: -10.1%
  inhibition at 1 µM: 14.5%
[24]
  inhibition at 0.1 µM: -10.8%
  inhibition at 1 µM: 1.7%
[25]
  inhibition at 0.1 µM: -17.2%
  inhibition at 1 µM: 14%
[26]
  inhibition at 0.1 µM: -4.4%
  inhibition at 1 µM: 1.7%
[27]
  inhibition at 0.1 µM: 11%
  inhibition at 1 µM: 9.2%
[28]
  inhibition at 0.1 µM: -3.3%
  inhibition at 1 µM: 7.2%
[29]; 0.1 μM
  inhibition at 0.1 µM: 3%
[29]; 1 μM
  inhibition at 1 µM: -3.7%
[30]; 0.1 μM
  percent inhibition: −5.4%
[30]; 1 μM
  percent inhibition: 24.7%
[31]; 0.1 μM
  percent inhibition: 11.9%
[31]; 1 μM
  percent inhibition: 60.7%
[32]
  inhibition at 0.1 µM: 0.7%
  inhibition at 1 µM: 9.4%
